According to US11389460B2, “Methods and compositions for treating endometrial cancer” (City of Hope, priority 2017, dated 2022):
Where two headings read alike, the source gives them in different places.

Tests used:
ECC-1 cells = assay: Cell viability assay (MTS / acid phosphatase), combination index by Chou-Talalay; assay type: cell-based; conditions: Homo sapiens, ECC-1, read-out: IC50 (concentration for 50% growth inhibition), pterostilbene alone, 48 h, one range printed for both cell lines
Protocol: (§1) Cell Culture. Human endometrial cancer cell lines HEC-1A and ECC-1 cells were from American Type Culture Collection (Rockville, Md.). […] All cells were grown in 5% (v/v) CO2 at 37° C.
(§2) Cell viability assays. Cells (4000 per well) were plated in 96-well plate format in 100 μl growth medium. Cells were treated with DMSO or drugs the next day at the indicated concentrations and incubated for an additional 2-3 days. Viable cells were determined either by the MTS assay (Promega, Madison, Wis., USA) or the acid phosphatase assay^53,54. For the MTS assay, 25 μl MTS solution was added directly into each well according to the manufacturer's instructions. For the acid phosphatase assay, all the media was removed and p-nitrophenyl phosphate substrate (10 mM 100 μl) was added into each well and incubated at 37° C. for 45 mins. […] The IC50 was determined using the Calcusyn software (Biosoft, Ferguson, Mo.).
(§3) Determination of combination index (CI). The combination index (CI) was determined using the Chou-Talalay method^37 using the Calcusyn software (Biosoft, MO).

HEC-1A cells = assay: as above; assay type: cell-based; conditions: Homo sapiens, read-out: IC50 (concentration for 50% growth inhibition), pterostilbene alone, 48 h, one range printed for both cell lines
Protocol: as §1, §2, §3

[1] = system: cell survival molecules and cell cycle molecules (caspase 3, PARP, BCL-2, BCL-xl, cyclin D1, cyclin B1, CDK4); assay: Western blot of cell survival and cell cycle molecules in HEC-1A cells; assay type: cell-based, Human; conditions: 24 h, single agents at various concentrations, combination 75 μM each
Protocol: (§4) Western blot analysis. Western blots were performed as described previously^55,56 Cells were grown in complete medium overnight and treated with DMSO or drugs at various concentrations for 24 hrs. Cells were washed in cold PBS and lysed in RIPA lysis buffer (Thermo Scientific) containing Halt protease and phosphatase inhibitors (Thermo Scientific). Proteins were quantified using BCA protein assay reagent (Thermo Scientific). Equal amounts of protein were separated by SDS-polyacrylamide gel electrophoresis, transferred to polyvinylidene fluoride membranes and incubated with total and phosphorylated protein-specific antibodies. Binding of the primary antibody was detected using a horseradish peroxidase (HRP)-conjugated secondary antibody and chemiluminescent substrates (Thermo Scientific).

[2] = system: p-STAT3, p-AKT, p-ERK and ER-α; assay: Western blot of cell signaling molecules in HEC-1A cells; assay type: cell-based, Human; conditions: 24 h, single agents at various concentrations, combination 75 μM each
Protocol: as §4

HEC-1A xenograft = HEC-1A xenograft mouse model; assay type: in vivo, nude mice; conditions: oral gavage daily, 5 weeks; Pterostilbene 30 mg/kg, megestrol acetate 10 mg/kg, or both; versus vehicle
Protocol: Animal models. All animal studies were carried out under protocols approved by the Institutional Animal Care and Use Committee (IACUC) at City of Hope in accordance with all applicable federal, state, and local requirements and institutional guidelines. HEC-1A cells (2×10^6 in 100 μl) were inoculated subcutaneously into the right flank of 6- to 8-week-old female nude mice. Once the tumors were palpable, animals were randomized into groups of 10 to achieve an equal distribution of tumor sizes in all treatment groups. Mice were then treated by oral gavage daily with vehicle, Pterostilbene (30 mg/kg), megestrol acetate (10 mg/kg), or a combination of both agents. The doses for these two drugs were chosen based on previously published studies. Tumor volumes were assessed using calipers twice a week. Tumor volumes were determined using the formula (Width)^2×Length×0.52. Body weight was monitored weekly as an indicator of drug-induced toxicity and overall health of the mice.
Statistical analysis. Data are presented as mean±S.D. Student's t-test was used to compare the means of two groups. All the experiments were repeated 2 to 4 times. P<0.05 was considered statistically significant.

[3] = recent clinical trial; cited from earlier work
[4] = compared to Resveratrol; cited from earlier work
[5] = system: advanced stage/recurrent endometrial cancer; conditions: advanced stage / metastatic and recurrent endometrial cancer patients, cited from earlier work

Compound | IC50 (ECC-1 cells) [µM] | IC50 (HEC-1A cells) [µM] | Cleavage of caspase 3 [1] | Expression of BCL-2 and BCL-xl [1] | Expression of cyclin D1, cyclin B1 and CDK4 [1] | ER expression [2] | Expression of p-ERK1/2 [2] | Expression of p-STAT3 and p-AKT [2] | Tumor growth reduction (tumor volume and tumor weight) (HEC-1A xenograft) | Dose generally safe for use in humans [3] | Bioavailability [4] | Response rate [5] | Response rate ([5]; listed as MA)
COc1cc(/C=C/c2ccc(O)cc2)cc(OC)c1 [pterostilbene] | 72 to 78 | 72 to 78 | increased cleavage | decrease | inhibited | slightly decreased | no significant effect | no significant effect | non-significant | up to 250 mg/day | superior bioavailability as compared to Resveratrol |  | 
megestrol acetate [reference compound] |  |  | little effect | little effect | little impact | did not significantly alter | did not significantly alter | did not significantly alter | non-significant |  |  | 20-30% | 25-30%
